Tests used:
Experiment in all cases: radiometric filter-binding kinase assay
RIPK2 (human) = RIPK2 (human) (UniProt O43353)
YES1 (human) = YES1 (human) (UniProt P07947); conditions: compound 1.0 µM
WNK1 (human) = WNK1 (human) (UniProt Q9H4A3)
CAMKK2 (human) = CAMKK2 (human) (UniProt Q96RR4); conditions: compound 1.0 µM
PHKG1 (human) = PHKG1 (human) (UniProt Q16816)
CSNK1D (human) = CSNK1D (human) (UniProt P48730); conditions: compound 1.0 µM
MAPKAPK5 (human) = MAPKAPK5 (human) (UniProt Q8IW41)
MAPK1 (human) = MAPK1 (human) (UniProt P28482); conditions: compound 10.0 µM
DYRK3 (human) = DYRK3 (human) (UniProt O43781); conditions: compound 1.0 µM
SRC (human) = SRC (human) (UniProt P12931); conditions: compound 10.0 µM
SRPK1 (human) = SRPK1 (human) (UniProt Q96SB4)
MELK (human) = MELK (human) (UniProt Q14680); conditions: compound 1.0 µM
SIK2 (human) = SIK2 (human) (UniProt Q9H0K1); conditions: compound 10.0 µM
MAP3K7 TAB1 (human) = MAP3K7 TAB1 (human) (UniProt Q15750+O43318)
TEK (human) = TEK (human) (UniProt Q02763)
PKN2 (human) = PKN2 (human) (UniProt Q16513); conditions: compound 10.0 µM
MAPK9 (human) = MAPK9 (human) (UniProt P45984); conditions: compound 1.0 µM
MAP2K1 (human) = MAP2K1 (human) (UniProt Q02750); conditions: compound 1.0 µM
CDK2 CCNA2 (human) = CDK2 CCNA2 (human) (UniProt P20248+P24941)
STK33 (human) = STK33 (human) (UniProt Q9BYT3)
[1] = tested on: PAK2 (human), Q13177 [T402E]; conditions: compound 1.0 µM
CSK (human) = CSK (human) (UniProt P41240); conditions: compound 1.0 µM
EPHB2 (human) = EPHB2 (human) (UniProt P29323); conditions: compound 1.0 µM
STK24 (human) = STK24 (human) (UniProt Q9Y6E0); conditions: compound 1.0 µM
EPHB3 (human) = EPHB3 (human) (UniProt P54753)
MYLK (human) = MYLK (human) (UniProt Q15746)
INSRR (human) = INSRR (human) (UniProt P14616); conditions: compound 1.0 µM
GSK3B (human) = GSK3B (human) (UniProt P49841); conditions: compound 1.0 µM
NEK6 (human) = NEK6 (human) (UniProt Q9HC98); conditions: compound 10.0 µM
PTK6 (human) = PTK6 (human) (UniProt Q13882)
SYK (human) = SYK (human) (UniProt P43405)
LCK (mouse) = conditions: compound 1.0 µM; accession and sequence are those of the human protein
MAP3K9 (human) = MAP3K9 (human) (UniProt P80192); conditions: compound 1.0 µM
NTRK1 (human) = NTRK1 (human) (UniProt P04629); conditions: compound 1.0 µM
IKBKE (human) = IKBKE (human) (UniProt Q14164); conditions: compound 10.0 µM
IGF1R (human) = IGF1R (human) (UniProt P08069)
EPHB4 (human) = EPHB4 (human) (UniProt P54760)
RPS6KA1 KD1 KD2 (human) = RPS6KA1 KD1 KD2 (human) (UniProt Q15418); conditions: compound 1.0 µM
MINK1 (human) = MINK1 (human) (UniProt Q8N4C8); conditions: compound 10.0 µM
NUAK1 (human) = NUAK1 (human) (UniProt O60285)
ZAP70 (human) = ZAP70 (human) (UniProt P43403); conditions: compound 1.0 µM
RPS6KA5 KD1 KD2 (human) = RPS6KA5 KD1 KD2 (human) (UniProt O75582); conditions: compound 10.0 µM
[2] = molecular target: STK11 CAB39 STRADA (human) (UniProt Q9Y376+Q7RTN6+Q15831)
PRKAA1 or PRKAA2 (rat) = conditions: compound 1.0 µM; accession and sequence are those of the human protein
TSSK1B (human) = TSSK1B (human) (UniProt Q9BXA7); conditions: compound 1.0 µM
PIM1 (human) = PIM1 (human) (UniProt P11309)
MAPK14 (human) = MAPK14 (human) (UniProt Q16539)

Chain of NUAK1 (human) (O60285 whole entry, looked up): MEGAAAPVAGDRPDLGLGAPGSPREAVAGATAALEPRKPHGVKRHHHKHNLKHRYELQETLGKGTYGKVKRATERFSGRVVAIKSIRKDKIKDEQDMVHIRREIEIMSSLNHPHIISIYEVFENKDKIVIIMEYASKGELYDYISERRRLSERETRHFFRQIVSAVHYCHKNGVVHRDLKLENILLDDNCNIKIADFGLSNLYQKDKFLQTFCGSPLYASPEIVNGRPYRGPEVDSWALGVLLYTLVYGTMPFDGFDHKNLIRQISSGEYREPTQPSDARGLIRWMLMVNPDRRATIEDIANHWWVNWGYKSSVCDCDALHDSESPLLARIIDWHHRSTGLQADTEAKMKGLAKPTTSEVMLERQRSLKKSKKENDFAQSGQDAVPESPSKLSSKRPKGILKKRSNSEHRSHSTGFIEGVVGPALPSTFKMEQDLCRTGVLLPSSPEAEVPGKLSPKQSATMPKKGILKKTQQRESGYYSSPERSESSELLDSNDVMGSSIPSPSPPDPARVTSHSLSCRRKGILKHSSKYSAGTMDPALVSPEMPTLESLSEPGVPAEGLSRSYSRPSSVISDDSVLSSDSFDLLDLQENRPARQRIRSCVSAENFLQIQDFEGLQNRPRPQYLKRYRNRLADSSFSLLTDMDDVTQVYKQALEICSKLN
Chain of PIM1 (human) (P11309 whole entry, looked up): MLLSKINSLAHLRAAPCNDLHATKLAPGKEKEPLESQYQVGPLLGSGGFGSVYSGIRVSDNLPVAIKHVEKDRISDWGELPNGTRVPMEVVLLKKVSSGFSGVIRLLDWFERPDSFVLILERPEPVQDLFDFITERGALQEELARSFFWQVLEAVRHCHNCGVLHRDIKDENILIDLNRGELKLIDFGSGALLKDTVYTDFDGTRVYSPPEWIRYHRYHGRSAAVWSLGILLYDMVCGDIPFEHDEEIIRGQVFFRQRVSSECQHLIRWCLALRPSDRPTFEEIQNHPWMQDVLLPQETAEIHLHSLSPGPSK
Chain of MAPKAPK5 (human) (Q8IW41 whole entry, looked up): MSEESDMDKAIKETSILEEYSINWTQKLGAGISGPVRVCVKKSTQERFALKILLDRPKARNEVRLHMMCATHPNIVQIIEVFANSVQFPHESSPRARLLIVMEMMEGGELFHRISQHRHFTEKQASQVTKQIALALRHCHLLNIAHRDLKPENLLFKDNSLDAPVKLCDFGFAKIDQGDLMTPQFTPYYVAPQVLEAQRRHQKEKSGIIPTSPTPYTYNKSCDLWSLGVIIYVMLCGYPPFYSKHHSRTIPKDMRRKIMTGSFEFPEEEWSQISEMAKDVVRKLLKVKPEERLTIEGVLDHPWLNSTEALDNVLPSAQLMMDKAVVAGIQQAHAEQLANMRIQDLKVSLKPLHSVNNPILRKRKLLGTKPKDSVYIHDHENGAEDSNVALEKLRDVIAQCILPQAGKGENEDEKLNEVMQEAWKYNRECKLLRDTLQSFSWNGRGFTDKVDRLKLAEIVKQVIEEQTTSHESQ
Chain of WNK1 (human) (Q9H4A3 whole entry, looked up): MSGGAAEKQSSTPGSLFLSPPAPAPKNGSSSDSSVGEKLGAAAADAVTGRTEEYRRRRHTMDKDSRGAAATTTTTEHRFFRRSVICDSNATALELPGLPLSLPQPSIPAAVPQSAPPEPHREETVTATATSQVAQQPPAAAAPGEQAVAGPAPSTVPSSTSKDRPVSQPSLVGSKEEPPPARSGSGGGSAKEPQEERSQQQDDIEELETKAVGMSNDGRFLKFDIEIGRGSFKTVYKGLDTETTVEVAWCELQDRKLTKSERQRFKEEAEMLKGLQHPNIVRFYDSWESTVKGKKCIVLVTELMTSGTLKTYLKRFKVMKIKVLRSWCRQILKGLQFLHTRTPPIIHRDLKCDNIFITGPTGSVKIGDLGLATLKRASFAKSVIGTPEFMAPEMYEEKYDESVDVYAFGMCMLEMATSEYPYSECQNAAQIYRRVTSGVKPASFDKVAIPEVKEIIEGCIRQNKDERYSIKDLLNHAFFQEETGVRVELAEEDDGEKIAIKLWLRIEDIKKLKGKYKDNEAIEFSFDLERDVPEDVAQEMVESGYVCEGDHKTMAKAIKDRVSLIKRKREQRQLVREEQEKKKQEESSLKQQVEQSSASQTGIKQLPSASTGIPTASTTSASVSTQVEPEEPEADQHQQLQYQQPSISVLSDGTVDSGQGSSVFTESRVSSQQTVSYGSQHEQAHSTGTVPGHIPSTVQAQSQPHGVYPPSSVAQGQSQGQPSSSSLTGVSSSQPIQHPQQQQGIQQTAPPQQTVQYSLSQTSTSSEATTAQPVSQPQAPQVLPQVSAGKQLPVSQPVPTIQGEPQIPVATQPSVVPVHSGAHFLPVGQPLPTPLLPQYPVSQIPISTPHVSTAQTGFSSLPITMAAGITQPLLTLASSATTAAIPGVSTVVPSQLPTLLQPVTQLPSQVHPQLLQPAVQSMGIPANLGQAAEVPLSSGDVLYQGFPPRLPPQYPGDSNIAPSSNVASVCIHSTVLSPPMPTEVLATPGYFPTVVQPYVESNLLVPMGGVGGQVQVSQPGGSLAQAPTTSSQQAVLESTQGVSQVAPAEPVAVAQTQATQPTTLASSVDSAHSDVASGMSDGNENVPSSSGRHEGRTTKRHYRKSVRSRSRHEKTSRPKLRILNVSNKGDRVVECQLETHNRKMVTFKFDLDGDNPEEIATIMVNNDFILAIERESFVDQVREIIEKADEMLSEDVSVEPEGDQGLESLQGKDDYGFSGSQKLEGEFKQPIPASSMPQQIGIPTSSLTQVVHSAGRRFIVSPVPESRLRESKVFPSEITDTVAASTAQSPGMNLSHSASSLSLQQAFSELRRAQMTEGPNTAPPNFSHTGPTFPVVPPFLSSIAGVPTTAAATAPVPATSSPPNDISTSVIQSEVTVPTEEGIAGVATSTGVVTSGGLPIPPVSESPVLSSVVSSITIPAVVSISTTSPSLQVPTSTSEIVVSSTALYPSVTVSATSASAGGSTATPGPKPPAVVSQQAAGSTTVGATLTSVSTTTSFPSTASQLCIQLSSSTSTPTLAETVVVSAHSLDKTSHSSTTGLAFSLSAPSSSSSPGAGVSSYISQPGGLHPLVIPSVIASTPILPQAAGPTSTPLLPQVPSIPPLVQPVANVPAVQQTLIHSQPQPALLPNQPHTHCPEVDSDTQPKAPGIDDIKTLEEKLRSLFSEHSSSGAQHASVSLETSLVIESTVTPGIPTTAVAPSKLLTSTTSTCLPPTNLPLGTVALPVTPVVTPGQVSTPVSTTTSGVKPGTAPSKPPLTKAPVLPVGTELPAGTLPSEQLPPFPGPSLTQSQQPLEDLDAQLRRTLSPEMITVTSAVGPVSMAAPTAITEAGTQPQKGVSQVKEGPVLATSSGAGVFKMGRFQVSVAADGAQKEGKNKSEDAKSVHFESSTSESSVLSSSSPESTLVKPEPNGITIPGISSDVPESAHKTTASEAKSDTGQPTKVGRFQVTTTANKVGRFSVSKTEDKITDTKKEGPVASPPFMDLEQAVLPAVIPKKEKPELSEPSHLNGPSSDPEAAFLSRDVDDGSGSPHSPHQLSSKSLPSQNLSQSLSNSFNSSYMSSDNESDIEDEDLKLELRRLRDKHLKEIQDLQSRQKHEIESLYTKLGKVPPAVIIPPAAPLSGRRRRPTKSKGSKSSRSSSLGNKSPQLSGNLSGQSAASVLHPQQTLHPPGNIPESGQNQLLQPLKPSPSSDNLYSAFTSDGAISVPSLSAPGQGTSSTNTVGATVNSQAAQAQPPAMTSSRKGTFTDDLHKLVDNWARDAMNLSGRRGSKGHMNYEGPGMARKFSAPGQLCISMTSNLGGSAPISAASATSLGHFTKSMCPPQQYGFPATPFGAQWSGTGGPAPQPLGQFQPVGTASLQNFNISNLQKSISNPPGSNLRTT
Chain of EPHB4 (human) (P54760 whole entry, looked up): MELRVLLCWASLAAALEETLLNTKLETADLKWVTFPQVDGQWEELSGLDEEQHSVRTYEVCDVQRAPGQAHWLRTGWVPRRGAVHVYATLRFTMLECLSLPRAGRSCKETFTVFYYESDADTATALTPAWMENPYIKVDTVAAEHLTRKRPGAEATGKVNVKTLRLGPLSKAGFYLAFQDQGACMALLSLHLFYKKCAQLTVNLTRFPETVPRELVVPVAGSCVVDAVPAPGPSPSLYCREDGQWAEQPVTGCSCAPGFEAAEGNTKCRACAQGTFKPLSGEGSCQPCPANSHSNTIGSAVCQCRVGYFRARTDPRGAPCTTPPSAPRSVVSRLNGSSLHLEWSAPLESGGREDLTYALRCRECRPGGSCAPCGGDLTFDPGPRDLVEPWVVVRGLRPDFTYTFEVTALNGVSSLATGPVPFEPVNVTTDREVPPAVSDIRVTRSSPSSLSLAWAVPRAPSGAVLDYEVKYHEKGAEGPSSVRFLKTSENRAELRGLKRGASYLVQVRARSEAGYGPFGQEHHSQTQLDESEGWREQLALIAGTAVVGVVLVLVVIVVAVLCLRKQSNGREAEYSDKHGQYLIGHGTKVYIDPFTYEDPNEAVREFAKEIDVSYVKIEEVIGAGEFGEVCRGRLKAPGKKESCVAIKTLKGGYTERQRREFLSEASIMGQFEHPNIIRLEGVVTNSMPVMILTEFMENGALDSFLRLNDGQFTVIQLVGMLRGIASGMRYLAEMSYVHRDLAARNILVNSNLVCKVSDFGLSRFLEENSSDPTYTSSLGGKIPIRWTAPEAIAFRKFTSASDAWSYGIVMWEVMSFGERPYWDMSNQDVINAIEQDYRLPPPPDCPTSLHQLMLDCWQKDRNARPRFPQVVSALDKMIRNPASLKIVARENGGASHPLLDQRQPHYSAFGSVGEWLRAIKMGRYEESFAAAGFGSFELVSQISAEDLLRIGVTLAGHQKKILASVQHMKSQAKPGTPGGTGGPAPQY

- residual activity (RIPK2 (human); compound 1.0 µM): 59%
- residual activity (RIPK2 (human); compound 10.0 µM): 56%
- residual activity (YES1 (human)): 120%
- residual activity (WNK1 (human); compound 1.0 µM): 104%
- residual activity (WNK1 (human); compound 10.0 µM): 106%
- residual activity (CAMKK2 (human)): 71%
- residual activity (PHKG1 (human); compound 1.0 µM): 78%
- residual activity (PHKG1 (human); compound 10.0 µM): 75%
- residual activity (CSNK1D (human)): 107%
- residual activity (MAPKAPK5 (human); compound 1.0 µM): 109%
- residual activity (MAPKAPK5 (human); compound 10.0 µM): 114%
- residual activity (MAPK1 (human)): 115%
- residual activity (DYRK3 (human)): 101%
- residual activity (SRC (human)): 160%
- residual activity (SRPK1 (human); compound 1.0 µM): 61%
- residual activity (SRPK1 (human); compound 10.0 µM): 69%
- residual activity (MELK (human)): 102%
- residual activity (SIK2 (human)): 111%
- residual activity (MAP3K7 TAB1 (human); compound 1.0 µM): 108%
- residual activity (MAP3K7 TAB1 (human); compound 10.0 µM): 101%
- residual activity (TEK (human); compound 1.0 µM): 119%
- residual activity (TEK (human); compound 10.0 µM): 133%
- residual activity (PKN2 (human)): 79%
- residual activity (MAPK9 (human)): 107%
- residual activity (MAP2K1 (human)): 77%
- residual activity (CDK2 CCNA2 (human); compound 1.0 µM): 113%
- residual activity (CDK2 CCNA2 (human); compound 10.0 µM): 117%
- residual activity (STK33 (human); compound 1.0 µM): 64%
- residual activity (STK33 (human); compound 10.0 µM): 66%
- residual activity [1]: 116%
- residual activity (CSK (human)): 104%
- residual activity (EPHB2 (human)): 123%
- residual activity (STK24 (human)): 101%
- residual activity (EPHB3 (human); compound 1.0 µM): 121%
- residual activity (EPHB3 (human); compound 10.0 µM): 113%
- residual activity (MYLK (human); compound 1.0 µM): 32%
- residual activity (MYLK (human); compound 10.0 µM): 23%
- residual activity (INSRR (human)): 76%
- residual activity (GSK3B (human)): 119%
- residual activity (NEK6 (human)): 65%
- residual activity (PTK6 (human); compound 1.0 µM): 103%
- residual activity (PTK6 (human); compound 10.0 µM): 101%
- residual activity (SYK (human); compound 1.0 µM): 115%
- residual activity (SYK (human); compound 10.0 µM): 125%
- residual activity (LCK (mouse)): 113%
- residual activity (MAP3K9 (human)): 69%
- residual activity (NTRK1 (human)): 80%
- residual activity (IKBKE (human)): 102%
- residual activity (IGF1R (human); compound 1.0 µM): 123%
- residual activity (IGF1R (human); compound 10.0 µM): 117%
- residual activity (EPHB4 (human); compound 1.0 µM): 118%
- residual activity (EPHB4 (human); compound 10.0 µM): 108%
- residual activity (RPS6KA1 KD1 KD2 (human)): 69%
- residual activity (MINK1 (human)): 76%
- residual activity (NUAK1 (human); compound 1.0 µM): 31%
- residual activity (NUAK1 (human); compound 10.0 µM): 58%
- residual activity (ZAP70 (human)): 103%
- residual activity (RPS6KA5 KD1 KD2 (human)): 120%
- residual activity ([2]; compound 1.0 µM): 97%
- residual activity ([2]; compound 10.0 µM): 105%
- residual activity (PRKAA1 or PRKAA2 (rat)): 90%
- residual activity (TSSK1B (human)): 103%
- residual activity (PIM1 (human); compound 1.0 µM): 102%
- residual activity (PIM1 (human); compound 10.0 µM): 109%
- residual activity (MAPK14 (human); compound 1.0 µM): 101%
- residual activity (MAPK14 (human); compound 10.0 µM): 102%
Structure (SMILES): O=C(Nc1cccnc1)c1cc(-c2ccnc(F)c2)ccc1OCc1ccccc1
